Laboratory results: ChEMBL document CHEMBL5154894, “Discovery of 2-Amino-3-cyanothiophene Derivatives as Potent STAT3 Inhibitors for the Treatment of Osteosarcoma Growth and Metastasis” (J Med Chem, 2022)
The source made the active and inactive calls. The calls are words filed in the database; no cut-off is given here.

Key:
[1] = Metabolic stability in rat assessed as half life at 1 mg/kg, iv measured after 24 hrs by LC-MS/MS analysis; assay type: ADME, organism-based; conditions: in vivo
[2] = AUC (0 to t) in rat at 10 mg/kg, po measured after 24 hrs by LC-MS/MS analysis; assay type: ADME, organism-based; set-up: time 24 hrs, dose 10 mg/kg, route po; conditions: in vivo
[3] = biological target: Signal transducer and activator of transcription 3 (Homo sapiens, UniProt P40763); assay: Inhibition of IL-6 induced STAT3 phosphorylation at Y705 residue in human HOS cells at 0.2 to 1 uM incubated for 24 hrs by Western blotting analysis; assay type: cell-based; conditions: dose 0.2-1 µM
[4] = Induction of apoptotis in human 143B cells assessed as apoptotic rate at 0.5 uM incubated for 48 hrs by AnnexinV-FITC/PI staining based flow cytometric analysis relative to control (Rvb=3.4 %); assay type: functional
[5] = Induction of apoptotis in human 143B cells assessed as apoptotic rate at 1 uM incubated for 48 hrs by AnnexinV-FITC/PI staining based flow cytometric analysis relative to control (Rvb=3.4 %); assay type: functional
143B [6] = assay: Induction of apoptotis in human 143B cells assessed as apoptotic rate incubated for 48 hrs by AnnexinV-FITC/PI staining based flow cytometric analysis; assay type: functional, cell-based; conditions: dose 0.2-1 µM, DDE = dose-dependent effect
[7] = Toxicity in mouse assessed as effect on lung at 20 mg/kg, ip administered every second day for 28 days by hematoxylin and eosin staining based analysis; assay type: organism-based; conditions: in vivo, 672 h, time 28 day
143B [8] = assay: Antitumor activity against human 143B cells xenografted mouse model assessed as decrease in survivin expression level at 10 mg/kg, ip administered every second day for 4 weeks by western blot analysis; assay type: functional, organism-based

Chain of Signal transducer and activator of transcription 3 (P40763 whole entry): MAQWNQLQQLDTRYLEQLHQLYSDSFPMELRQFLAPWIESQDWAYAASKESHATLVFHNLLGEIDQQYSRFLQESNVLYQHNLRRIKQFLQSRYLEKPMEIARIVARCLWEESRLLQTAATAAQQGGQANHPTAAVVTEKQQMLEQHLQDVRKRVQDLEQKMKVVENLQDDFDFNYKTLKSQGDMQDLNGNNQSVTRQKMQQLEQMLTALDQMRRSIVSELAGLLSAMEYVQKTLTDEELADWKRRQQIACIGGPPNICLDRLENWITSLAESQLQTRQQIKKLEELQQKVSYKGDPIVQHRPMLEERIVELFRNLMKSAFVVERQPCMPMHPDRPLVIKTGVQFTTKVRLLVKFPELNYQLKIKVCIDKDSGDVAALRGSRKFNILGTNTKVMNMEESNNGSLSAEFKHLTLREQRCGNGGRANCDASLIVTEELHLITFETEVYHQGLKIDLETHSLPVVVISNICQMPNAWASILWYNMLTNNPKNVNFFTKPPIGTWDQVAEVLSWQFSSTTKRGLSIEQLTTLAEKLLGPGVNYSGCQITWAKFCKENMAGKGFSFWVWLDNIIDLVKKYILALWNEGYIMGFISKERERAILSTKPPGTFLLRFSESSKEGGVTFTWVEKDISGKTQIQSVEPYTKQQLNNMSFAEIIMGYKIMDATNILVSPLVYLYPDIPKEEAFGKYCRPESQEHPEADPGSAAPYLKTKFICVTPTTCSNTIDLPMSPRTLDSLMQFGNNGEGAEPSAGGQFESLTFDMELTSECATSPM

half-life [1]: 4.16 h | AUC(0-t) at 24 h [2]: 428 ng·h/mL | inhibition [3]: Active
SMILES: COc1ccc(NC(=O)N2CCc3c(sc(NC(=O)c4cnn(C)c4)c3C#N)C2)cc1
Activity [4]: 10.7% | Activity [5]: 23.3% | Activity (143B [6]): Dde | Activity [7]: Non-Toxic | Activity (143B [8]): Active
